Values of other authors in US20070212307A1, “Pharmaceutical Compositions Comprising an Opioid Receptor Antagonist and Methods of Using Same” (priority 2006, published 2007).

Conditions: 50 mg oral dose

Q: With O=C1CC[C@@]2(O)[C@H]3Cc4ccc(O)c5c4[C@@]2(CCN3CC2CC2)[C@H]1O5 [naltrexone] as the molecule, how does the oral bioavailability read?
A: The oral bioavailability was 10%-25%.
